row,melting point [°C],SMILES
1,220 to 222,CC(CCC(=O)NC(C)(C)CO)C1CCC2C3C(=O)CC4CC(O)CCC4(C)C3CCC12C (centres undefined)
2,192,CCC(C)(C)Nc1c(NCc2ccccn2)c(=O)c1=O
3,> 250,Cn1c(=O)oc2cc3c(cc21)C1(CO3)C(=O)N(C(c2ccccc2)c2ccccc2)c2ccccc21 (centres undefined)
4,205,Cc1c(C(=O)c2ccc(Cl)c(S(N)(=O)=O)c2)[nH]c2ccccc12
5,79 to 81,N#Cc1ccc(OCCc2cccc(F)c2)cc1
6,71 to 74,CCOC(=O)c1ncc2ccccc2n1
7,48.5 to 50.5,N#CS/C=C\C(=O)OCc1ccccc1
8,152 to 155,CCOCc1nc2c(N)nc3ccccc3c2n1NCc1ccccc1
9,162 to 163,CCCn1c(=O)c2[nH]c(/C=C/c3cc(OC)c(OC)c(OC)c3)nc2n(CCC)c1=O
10,218 to 222,O=C(O)CN1CC(=O)NC1=NN=Cc1ccccc1
11,130,COc1ccc(-c2cc(CN(C)C)c(=O)n(Cc3ccc(F)c(F)c3)n2)cc1F
12,174 to 175,CC1(CNC(=O)C2CCCCC2)OCCc2c1[nH]c1ccccc21 (centres undefined)
13,65 to 66,COCc1nc(C(C)(C)C)c[nH]1
14,67 to 68,CC(C)CC(=O)Nc1ccccc1
15,209 to 210,COc1c(Cl)c(-c2nnc(C)s2)cc2oc(=O)c(C)c(C)c12
16,143 to 146,COc1ccc(N(Cc2cnn(Cc3ccc(F)cc3)c2)C(=O)C2CCCc3c(O)cccc32)cc1 (centres undefined)
17,192 to 193,CCOc1cc(N)ccc1-c1ccc(-c2ccc(N)cc2OCC)o1
18,82 to 84,Cc1nc(Cl)c2sccc2n1
19,44,COC(C)(C)c1cc(C(C)(C)OC)cc(C(C)(C)OC)c1
20,145 to 146,CC(C)n1nc(-c2c(-c3ccccc3)nn3ccc(OCc4cccnc4)cc23)ccc1=O
21,123 to 130,CCN1C(=O)C(C)(C)C(=O)N(C)c2cc(CN(CCn3ccc4oc(C)cc4c3=O)Cc3ccccc3-n3cccn3)ccc21
22,257 to 260,Cc1cc2cc(NC(=O)Nc3ccc(Cl)cc3)ccc2[nH]1
23,170 to 173,Cc1cc2c(c(N3CC[C@H](N(C)C)C3)c1-c1ccccc1)OC(C#N)(C(=O)N1CCCCC1)N2 (some centres undefined)
24,67 to 69,COC(=O)NCC(C)(C)c1ccc(NC(=O)c2ccc(OC)c(OC)c2)cc1

row,melting point [°C],SMILES
1,199 to 201,CCCCCNC(=O)Nc1ccccc1C(=O)NC1CCN(C(c2ccccc2)c2ccccc2)CC1
2,226 to 228,NCc1cccnc1C1CCN(c2c(F)c(N)c3c(=O)c(C(=O)O)cn(C4CC4)c3c2F)C1 (centres undefined)
3,123 to 126,Cc1cc(C(=O)C=C(c2cc(Cl)cc(Cl)c2)C(F)(F)F)ccc1C(=O)O
4,62 to 64,CN1CCC(C(=O)Nc2ccc(CN(C)C3CCOCC3)cc2)=Cc2cc(Br)ccc21
5,274 to 275,O=C1OC(=Cc2ccc3ccccc3c2)C(=O)C(c2ccc(Cl)cc2)=C1O
6,232 to 234,CCn1cc(C(=O)O)c(=O)c2cc(F)c(N3CCNC(c4ccc(Cl)s4)C3)cc21 (centres undefined)
7,200,O=[N+]([O-])c1cccc(-c2cccc([N+](=O)[O-])c2)c1
8,131 to 132,Cc1cc2c(c3ccc(=O)[nH]c13)OC(CNC(=O)[C@@H]1CCCN1C(=O)OCc1ccccc1)C2 (some centres undefined)
9,62 to 64,C=C(C)n1c(=O)n(-c2ccc(CCNC[C@H](O)COc3ccc(O)cc3)cc2)c2ncccc21
10,165 to 167,Cc1cc(-n2ccc(OCc3ccccc3)cc2=O)sc1C(=O)NCc1cccnc1
11,233 to 234,CCOC(=O)c1cnn(C)c1C(=O)Nc1ccn2nc(N3CCCC3)nc2c1
12,41 to 42,CCOC(=O)c1sc(Cl)nc1-c1cccc(C)c1
13,174 to 176,NC(=O)c1cnn2c1N(C(=O)CCl)CC=C2c1cccc(C(F)(F)F)c1
14,271,CNc1nc(Nc2ccc(Cl)c(Cl)c2)ncc1N1CCNC1=O
15,> 280,Cc1cc(-c2[nH]nc3c2C(=O)c2c(NC(N)=O)cccc2-3)c(C)s1
16,172 to 174,CCCCCCCCc1ccc(N(c2ccc(CCCCCCCC)cc2)C2(c3ccc(N(C)C)cc3C)OC(=O)c3ccccc32)cc1 (centres undefined)
17,154 to 155,Cc1ccccc1CC(=NC#N)NC(NC(=O)CCCc1cccs1)C(C)(C)C (centres undefined)
18,138,CC(C)NC(=O)CS(=O)CC(=O)c1ccc(-c2ccccc2)cc1 (centres undefined)
19,254,Cc1ccccc1NC(=O)CN1C(=O)c2ccccc2C1=O
20,107 to 110,CN1CCN(CCOc2ccc(Nc3ncc4ccc(-c5cccnc5)n4n3)cc2)CC1
21,64 to 67,COc1cccc(CNC(CCCCCC(=O)O)C(C)C)c1 (centres undefined)
22,110 to 111,CCOC(=O)c1c(CN(CC)CC)nc2sc(C)c(C)c2c1-c1ccc(OC)c(OC)c1
23,203 to 205,Cc1cnc2c(c1-c1ccccc1)C(=O)N(Cc1cc(C(F)(F)F)cc(C(F)(F)F)c1)CCN(C)C2=O
24,159 to 161,COc1nsnc(Cl)c1=O

row,melting point [°C],SMILES
1,88 to 89,CC(C)Oc1ccc(CCCOc2cc(CCC(=O)O)n(C)n2)c(OCc2ccc(C(F)(F)F)cc2)c1
2,145 to 147,Cc1cc(C2=NNC(=O)CC2)ccc1CCCCN
3,114 to 116,Cc1nc2c(-c3cccc(C(F)(F)F)c3)cncn2n1
4,104 to 105,COc1ccc2c(n1)c(CCNC(=O)c1ccco1)c1n2CCCC1
5,91 to 94,CC(C)(C)C(=O)Oc1cc2c(s1)CCN(C(C(=O)C1CC1)c1ccccc1F)C2 (centres undefined)
6,97 to 99,Cc1cc(=O)n(-c2cc(OC(C)C)c(Cl)cc2F)c(=O)n1C(F)F
7,205 to 218,COc1ccc(NS(=O)(=O)c2ccc(N3CCC(NCC(O)c4ccc(O)c(NS(C)(=O)=O)c4)CC3)cc2)cc1OC (centres undefined)
8,154 to 157,CN1C(=O)CCN(c2ccc(Cl)cc2Cl)C1=O
9,210 to 212,CCCCc1ncc(/C(C)=C(\Cc2cccs2)C(=O)O)n1Cc1ccc(C#N)cc1
10,65 to 70,CN1CCN(CC2=NC(NC(=O)OCc3ccccc3)C(=O)N(C(C)(C(N)=O)c3ccccc3)c3ccccc32)CC1 (centres undefined)
11,220 to 221,CCCNC(=O)NNC=NC(=O)c1nc(Cl)c(N)nc1N
12,224 to 228,CC(C)C(=O)c1cc2ccncc2[nH]1
13,192 to 194,Nc1ccc(C=Cc2cc(=O)cc(-c3ccccc3)o2)cc1
14,156 to 158,CCCOc1ccc(N2CCCn3c2nc2c(Cl)ccc(C(OC(F)F)C(F)(F)F)c23)c(C)n1 (centres undefined)
15,92,COc1ccc(Oc2ncc(Br)cn2)cc1
16,131 to 133,O=C(NC(=CC(=O)[C@H](Cc1ccccc1)N(Cc1ccccc1)Cc1ccccc1)Cc1ccccc1)c1ccccc1
17,265 to 267,O=C(O)Cn1cc(Cc2nc3cc(C(F)(F)F)ccc3s2)c2ccc(Br)cc21
18,144 to 146,CC(C)c1ccc(C2(O)Cc3ccccc3C2=O)c(O)c1 (centres undefined)
19,115 to 119,NC(Cc1ccccc1)C(O)C(O)C(N)Cc1ccccc1 (centres undefined)
20,134 to 137,CSCCCC(=O)NNC(=O)N1Cc2ccccc2Oc2ccc(Cl)cc21
21,123 to 124,CCOC(=O)C1=CCCCC1S(=O)(=O)Nn1c(Br)ccc1Br (centres undefined)
22,142 to 144,COc1cc(I)nc(N)n1
23,> 300,O=C1Nc2cc(NC(=O)c3cccn(-c4ccccc4)c3=O)ccc2/C1=C/c1ccc[nH]1
24,130 to 131,O[Si](Cn1cncn1)(c1ccc(F)cc1)c1ccc(F)cc1

row,melting point [°C],SMILES
1,48 to 49,O=[N+]([O-])c1ccccc1Oc1ccccc1Cl
2,91 to 93,CSc1nncc(C(C)(C)C)n1
3,178 to 180,CCOC(=O)C1=NN=C(c2ccc(OC)c(OC)c2)c2cc(OC)c(OC)cc2C1CC (centres undefined)
4,64 to 66,C[C@H]1C[C@@](O)(c2csc(S(=O)(=O)c3ccc4c(c3)CCC(=O)N4C)c2)CCO1
5,171 to 172,Cc1c(NC(=O)c2ccc(-c3ccc(F)cc3)cc2)ccc2cc(CN3CCC(c4ccccc4)CC3)cnc12
6,123 to 125,Cc1ncnc(-c2cc([N+](=O)[O-])c(C#N)cc2F)c1Cl
7,195 to 197,CCOC(=O)c1cn2c3c(cc(C)cc3c1=O)OCC2C (centres undefined)
8,166 to 168,COC[C@H]1C[C@@H](n2cnc3c(N[C@H]4CCN(c5ccc(C(F)(F)F)cn5)C4)ncnc32)[C@@H](O)[C@H]1O
9,91 to 94,CC(C)C(C)(C)C(=O)C(Cc1ccc(Cl)cc1)n1cncn1 (centres undefined)
10,184 to 185,O=c1cc2c(nn1-c1ccc(Cl)cc1)-c1cc(Br)sc1S(=O)CC2 (centres undefined)
11,305 to 307,Cn1nc(N)c2sc3cc(O)c(O)cc3c21
12,105 to 111,CC(C)(C)c1cc(C(=O)Nc2cccc(OCc3cncc(Br)c3)c2)ccc1O
13,163,CN1CCC(OC2c3ccccc3CCn3c2nc(I)c3I)CC1 (centres undefined)
14,148 to 150,CN(C)C=C1Cc2cc(Cl)ccc2C1=O
15,85 to 87,CCC(CC)(CC)n1ncc(C(=O)NC)c1C#N
16,156 to 159,O=C(O)Cc1ccc(Cl)cc1[N+](=O)[O-]
17,109 to 110,CC(OC=O)C1C(=O)N([Si](C)(C)C(C)(C)C)C1CC(=O)O (mixture of isomers)
18,251 to 253,O=C1c2ccc(F)cc2C(=O)c2cc3cc(F)ccc3cc21
19,82 to 84,COc1ccc(Br)cc1C(C)(C)CCl
20,46 to 50,Cc1ccc(C(C)(C)C)c(SC2=C(O)CC(CCc3ccccc3)(CCC(C)C)OC2=O)c1 (centres undefined)
21,178 to 179,O=C(CCCc1ccccc1)NCc1ccc(C(=O)O)cc1
22,242 to 244,COc1ccc(-c2cc(S(N)(=O)=O)sc2-c2ccc(OC)c(S(N)(=O)=O)c2)cc1S(N)(=O)=O
23,155 to 156,CNC(=O)N1CC(Oc2cccc(F)c2)C1

row,SMILES,melting point [°C]
1,NC(=O)c1ncn2c1[C@@H]1CCN1C(=O)c1ccccc1-2,228 to 230
2,CCOC(=O)CN1C(=O)N(c2ccc(C#N)c(C(F)(F)F)c2)C(=O)C1(C)C,152
3,Clc1conc1OC1CN2CCC1CC2 (centres undefined),68 to 69
4,C=C(c1cn(-c2c(Cl)cc(C(F)(F)F)cc2Cl)nc1C#N)C(F)(F)F,103 to 104

# Source: a melting point compilation (Tetko et al.; mined from patent text by program, amines drawn as free bases though some values may be those of a salt)
